In patent US20050026783A1, “Herbicide combinations comprising specific sulfonamides” (priority 2003, published 2005):
Like-named read-outs stand apart in the source and are kept apart here.

Key:
Veronica hederifolia = type: in vivo; details: field trial, scored about 4 weeks after application, mean of 2-4 plots
Protocol: (§1) The seeds or rhizome pieces of the harmful plants and the useful plants were laid out or were present in the soil, and they were grown under natural outdoor conditions. Treatment with the active compounds or active compound combinations was carried out […] before and/or after the emergence of the plants, generally at the 2- to 4-leaf stage, in various dosages using a water application rate of 100 to 400 l/ha (converted).
(§2) After the application (about 4 weeks after the application), the effectiveness of the active compounds or active compound combinations was scored visually by comparing the treated plots to untreated control plots. During scoring, damage and development of all above-ground parts of plants was assessed. Scoring was carried out using a percentage scale (100% effect=all plants have died; 50% effect=50% of the plants and the green parts of the plants have died; 0% effect=no effect observed=like control plot). In each case, the mean score of 2-4 plots was calculated.
(§3) The results are shown in the table below; the effect of the individual application of active compounds (A+B) and C being stated in brackets.

Triticum aestivum = type: in vivo; details: field trial, scored about 4 weeks after application, mean of 2-4 plots
Protocol: as §1, §2, §3

[1] = application rate 15 g of active substance/hectare
[2] = application rate 80 g of active substance/hectare
[3] = application rate 20 g of active substance/hectare

COc1cc(OC)nc(NC(=O)NS(=O)(=O)N(C)S(C)(=O)=O)n1 [amidosulfuron, 1-(4,6-dimethoxypyrimidin-2-yl)-3-mesyl-(methyl)sulfamoylurea]
Veronica hederifolia % effect (Veronica hederifolia; [1]): 20%
Triticum aestivum % damage (Triticum aestivum; [1]): 0%

CCCCCCCC(=O)Oc1c(I)cc(C#N)cc1I [ioxynil-octanoate]
Veronica hederifolia % effect (Veronica hederifolia; [2]): 45%
Triticum aestivum % damage (Triticum aestivum; [2]): 0%

CCCOc1nn(C(=O)[N-]S(=O)(=O)c2ccccc2C(=O)OC)c(=O)n1C.[Na+] [propoxycarbazone-sodium]
Veronica hederifolia % effect (Veronica hederifolia; [3]): 25%
Triticum aestivum % damage (Triticum aestivum; [3]): 1%
